# Source: publication PMC12970513, “Unsaturated Phosphorus Electrophiles to Probe Protein Tyrosine Phosphatases” (Angewandte Chemie (International Ed. in English), 2026)
# *1 amine or outer side, *2 acyl side, *3 side chain or, on linkers, in order; H or OH if unused. Where a SMILES comes first, the peptide text is derived from it. [ ]: non-standard residue; d: D form. The star is where a group is joined. X1 = C#CP(=O)(O)Oc1ccc(C[C@H](N[*:1])C(=O)[*:2])cc1; X2 = C#CP(=O)(O)Nc1ccc(C[C@H](N[*:1])C(=O)[*:2])cc1; Biotin = O=C1N[C@H]2[C@H](CS[C@H]2CCCCC(=O)*)N1
# Key:
# [1] = Lysate labeling by fluorescence gel scanning, HEK293T; parameters: species or system human; details: HEK293T lysate 2 mg/mL, 50 mM sodium succinate pH 6.0, 150 mM NaCl, 1 mM EDTA, 1 mM DTT, 1 h, R.T.
# Protocol: Having identified suitable conditions, we aimed to compare our target‐specific peptide PO‐probe with a broad reactivity PTP probe in order to visualize the different reactivity patterns in human lysate. […] Using the previously reported buffer conditions, HEK293T cell lysate (50 mM sodium succinate, pH 6.0, 150 mM NaCl, 1 mM EDTA, 1 mM DTT) was incubated for 1 h with TMR‐BBP (100 µM).
# For fluorescence gel scanning of TMR labeled probes samples resolved by SDS-PAGE and first visualized at a Bio-Rad imaging system equipped with a 532 nm laser for excitation. Afterwards, wherever applicable gels were stained with Coomassie brilliant blue.
# For the comparison of the labeling pattern between TMR-PO and a general phosphatase probe (TMR-BBP) freshly lysed HEK293T cell lysate was adjusted to 2 mg/mL. […] For labeling with TMR-BBP cells were lysed in 50 mM sodium succinate buffer pH 6.0, 150 mM NaCl, 1 mM EDTA, and 1 mM DTT as previously reported.^[3] […] The reactions were incubated for 1 hour at room temperature and subsequently analyzed by fluorescence gel scanning.
# A volume of 49 µL of each lysate was mixed with 1 µL of a 5 mM TMR-PO stock solution in DMSO and incubated for 1 hour at room temperature. Samples were resolved by SDS-PAGE and analyzed by fluorescence gel scanning.
# [2] = Stability of bio-PN and bio-PO in HEK293T cell lysate by 31P NMR; type: in vitro ADME, human; details: HEK293T lysate (1 mg/mL), 1 mM peptide, room temperature
# Protocol: Next, we assessed the stability of the phosphonamidic and phosphonic acid in aqueous buffers at pH 2, pH 3.5, pH 7.4, pH 8.5, and pH 11. Therefore, SM‐PN and SM‐PO were added in the corresponding buffers and monitored for 48 h at room temperature via ^31P‐NMR with triphenylphosphinoxide (TPPO) as an internal standard (Figure S2). […] Furthermore, we evaluated the stability of the peptide probes bio‐PN and bio‐PO in human lysate for subsequent experiments. These peptides were added in HEK293T cell lysate, and changes in stability were recorded for 18 h via ^31P‐NMR, in which inorganic phosphate served as an internal standard. […] Nonetheless, both peptides display sufficient stability for follow‐up studies.
# A solution of 480 µL of HEK293T cell lysate (1 mg/mL) was supplemented with 60 µL of D2O. To this, 60 µL of bio-PN or bio-PO (10 mM stock in DMSO, final concentration 1 mM) were added right before the start of the measurement. The mixtures were transferred to NMR tubes and one-dimensional ^31P-NMR spectra were recorded for each sample at room temperature, in intervals of 2.5 h over the course of 18 h on a Bruker AV-III 600 spectrometer. For analysis, the spectra were Fourier-transformed, baseline corrected and the intensity of the ^31P-NMR signal was obtained by integration.
compound,measurement,setting,value
α-bromo(4-((N-5/6-TAMRA-aminomethyl)phenyl)methyl)phosphonic acid [TMR-BBP],labeling pattern in HEK293T lysate (TMR-BBP),[1],labeled many proteins across the whole proteome
C#CP(=O)(O)Oc1ccc(C[C@H](NC(=O)[C@H](CCC(=O)O)NC(=O)[C@H](CC(=O)O)NC(=O)[C@H](C)NC(=O)[C@H](CC(=O)O)NC(=O)CCCC[C@@H]2SC[C@@H]3NC(=O)N[C@@H]32)C(=O)N[C@@H](CC(C)C)C(=O)N[C@H](C(=O)N2CCC[C@H]2C(=O)N[C@@H](CCC(N)=O)C(=O)N[C@@H](CCC(N)=O)C(=O)NCC(N)=O)[C@@H](C)CC)cc1 [bio-PO] (Biotin-DADE[X1]LIPQQG-NH2),decay in HEK293T cell lysate,[2]; 18 h,remains intact
same,remaining intact in HEK293T cell lysate,"[2]; 18 h, inorganic phosphate internal standard",stayed unaltered
C#CP(=O)(O)Nc1ccc(C[C@H](NC(=O)[C@H](CCC(=O)O)NC(=O)[C@H](CC(=O)O)NC(=O)[C@H](C)NC(=O)[C@H](CC(=O)O)NC(=O)CCCC[C@@H]2SC[C@@H]3NC(=O)N[C@@H]32)C(=O)N[C@@H](CC(C)C)C(=O)N[C@H](C(=O)N2CCC[C@H]2C(=O)N[C@@H](CCC(N)=O)C(=O)N[C@@H](CCC(N)=O)C(=O)NCC(N)=O)[C@@H](C)CC)cc1 [bio-PN] (Biotin-DADE[X2]LIPQQG-NH2),"remaining at 18 h, 1 mM","[2]; human, HEK293T cell lysate, inorganic phosphate internal standard, read-out: remaining intact in HEK293T cell lysate",80%
same,"metabolised at 18 h, 1 mM","[2]; human, HEK293T cell lysate, read-out: decay in HEK293T cell lysate",20%
